Data as given in US11267780B2, “Compound for modulating DDAH and ADMA levels, as well as methods of using thereof to treat disease” (THE TRUSTEES OF INDIANA UNIVERITY, priority 2018, dated 2022).
Entries after “also recorded” stand apart in the source; their conditions may differ.

Key:
[1] = system: DDAH promoter; experiment: DDAH promoter activation assay (DDAH promoter-Luciferase reporter); assay type: cell-based
Experimental: DDAH promoter activation assay. Activation of DDAH promoter was determined using a DDAH promoter-Luciferase reporter assay. DDAH promoter DNA sequence was cloned in pGL4.10 luciferase reporter plasmid. For transfection of HEK-293 cells, the cells were seeded in six well plates at a density of 2.0×10^5 cells/well. After 24 hours, the cells were transfected with the DDAH promoter plasmid by adding 200 ng DNA/well and incubated for 24 hours. Transfected cells were then transferred to 96 well plates at 50,000 cells/well and incubated overnight with various concentrations of the test compounds. The medium was removed from the wells and 20 μL of lysis reagent was added. After 5 min, 100 μL Luciferase assay reagent was added, and luminescence was measured.

[2] = system: DDAH-1 protein; experiment: DDAH western blot analysis in human pulmonary artery smooth muscle cells; assay type: cell-based; details: 24 hours
Experimental: (§1) DDAH and Collagen western blot analysis. Human umbilical vein endothelial cells (HUVEC), retinal endothelial cells and vascular smooth muscle cells from Lonza were transferred to 6 well plates at a density of 4.0×10^5/well and incubated overnight. Various concentrations of test compounds were then added. After 24 hours, medium was removed, the cells were scraped and collected in 50 μL of lysis buffer containing 50 mM Tris-HCl, 0.25% deoxycholic acid, 1% NP-40, 1 mM EDTA and protease inhibitor cocktails. Cell extract was subjected to SDS polyacrylamide gel electrophoresis. Proteins from the 12% polyacrylamide gels were transferred to PVDF membranes for westerns and blotted with DDAH or collagen 1 antibodies from Abcam.
(§2) Expression of DDAH was determined in human pulmonary artery smooth muscle cells (FIG. 1A) and human retinal microvascular endothelial cells (FIG. 1B). Cells were treated with different concentrations of VN-317. After 24 hours, cells were extracted in lysis buffer as described under methods. Extracts were subjected to SDS gel electrophoresis. Proteins from SDS gel were transferred to PVDF membrane and for western blotting using DDAH-1 antibodies. […] Therese data illustrate differential modulation of DDAH by VN-317 in different cell types.

[3] = system: DDAH-1 protein; experiment: DDAH western blot analysis in human retinal microvascular endothelial cells; assay type: cell-based; details: 24 hours
Experimental: as §1, §2

[4] = system: collagen 1; experiment: Collagen western blot analysis in myofibroblast like smooth muscle cells; assay type: cell-based; details: in response to TGF-beta, 48 hours
Experimental: as §1
Cells were treated with VN-317 in the presence or absence of TGF-beta. After 48 hours, cells were extracted in 50 ul lysis buffer and cell extract was subjected to SDS gel electrophoresis. Proteins from the 12% polyacrylamide gels were transferred to PVDF membranes for westerns and blotted collagen 1a antibodies from Abcam.

[5] = system: monocrotalin induced PAH; experiment: Rat model of monocrotalin induced PAH; assay type: in vivo; details: 1 mg/kg s.c. once a day
Experimental: A rat model of monocrotalin induced PAH was used for in vivo studies. Male Sprague Dawley rats about 250 g were purchased from Charles river. PAH was induced by a single s.c. injection of 60 mg/kg monocrotalin. VN-317 (1 mg/kg) or vehicle was administered subcutaneously on day one and once a day thereafter. After 6 weeks, the disease development was determined by pulmonary artery (PA) pressure measurements, echocardiography, and histology. PA pressure was determined by right heart catheterization using a 1.4-F micromanometer-tipped Millar catheter with fluoroscopy guidance. Transthoracic echocardiography was performed using a GE vivid i with 5.0-13.0 MHz il2L-RS linear array transducer. Pulmonary artery acceleration time (PAAT) was measured using pulse-wave Doppler echocardiography with the sample volume centrally positioned in the PA distal to the pulmonary valve. M-mode was applied to measure the right ventricular cavity thickness during end diastole using the parasternal long-axis view obtained from the right side of the rat. Tissue and blood samples were collected at termination. Tissues were fixed in 10% formalin, embedded in paraffin, and then processed for histomorphometry. Macrophage in lung tissues were determined by immunostaining using CD68 antibodies.

[6] = Table 2, ADMA-lowering agents including heterocycles
[7] = Table 1, stilbene-based ADMA-modulating agents
[8] = Table 3, other ADMA-lowering agents
[9] = after 6 weeks, echocardiography

Row | EC50 [1, 6] | EC50 [1, 7] | Structure (SMILES) | also measured
1 | 0.79 nM | – | O=C(O)c1cccc(/C=C/c2cccs2)c1 [VN-368, (E)-3-(2-(thiophen-2-yl)vinyl)benzoic acid] | –
2 | – | 8.7 nM | Cc1ccccc1/C=C/c1cccc(C(=O)O)c1 [VN-329, (E)-3-(2-methylstyryl)benzoic acid] | –
3 | 180 nM | – | O=C(O)c1cccc(/C=C/c2nccs2)c1 [VN-365, (E)-3-(2-(thiazol-2-yl)vinyl)benzoic acid] | –
4 | – | – | O=C(O)c1cccc([C@H]2C[C@@H]2c2ccccc2)c1 [VN-347, 3-((1S,2S)-2-phenylcyclopropyl)benzoic acid] | EC50 [1, 8]: 3.3 nM
5 | – | – | O=C(O)c1cccc(/C=C\c2ccccc2)c1 [VN-339, (Z)-3-styrylbenzoic acid] | EC50 nM [1, 7]: Ambiguous
6 | 2.8 nM | – | O=C(O)c1cccc(/C=C\c2cncs2)c1 [VN-386, (Z)-3-(2-(thiazol-5-yl)vinyl)benzoic acid] | –
7 | 651 nM | – | O=C(O)c1cccc(/C=C/c2ccncc2)c1 [VN-355, (E)-3-(2-(pyridin-4-yl)vinyl)benzoic acid] | –
8 | – | 0.97 nM | O=C(O)c1cccc(/C=C/c2ccc(OCCN3CCOCC3)cc2)c1 [VN-363, (E)-3-(4-(2-morpholinoethoxy)styryl)benzoic acid] | –
9 | – | 1.4 nM | O=C(O)c1cccc(/C=C/c2ccc(Cl)cc2)c1 [VN-371, (E)-3-(4-chlorostyryl)benzoic acid] | –
10 | 0.17 nM | – | O=C(O)c1cccc(/C=C\c2cocn2)c1 [VN-380, (Z)-3-(2-(oxazol-4-yl)vinyl)benzoic acid] | –
11 | – | 3.4 nM | O=C(O)c1cccc(/C=C/c2ccc(F)cc2)c1 [VN-390, (E)-3-(4-fluorostyryl)benzoic acid] | –
12 | 0.76 nM | – | O=C(O)c1cccc(/C=C\c2cccs2)c1 [VN-373, (Z)-3-(2-(thiophen-2-yl)vinyl)benzoic acid] | –
13 | – | – | O=C(O)c1cccc(/C=C\c2cccc(OCCN3CCOCC3)c2)c1 [VN-388, (Z)-3-(3-(2-morpholinoethoxy)styryl)benzoic acid] | EC50 nM [1, 7]: Ambiguous
14 | 1060 nM | – | O=C(O)c1cccc(/C=C/c2cncs2)c1 [VN-367, (E)-3-(2-(thiazol-5-yl)vinyl)benzoic acid] | –
15 | – | 18.6 nM | O=C(O)c1cccc(/C=C/c2ccc(O)cc2)c1 [VN-328, (E)-3-(4-hydroxystyryl)benzoic acid] | –
16 | – | 1.8 nM | COc1ccc(/C=C/c2cccc(C(=O)O)c2)c(C)c1 [VN-333, (E)-3-(4-methoxy-2-methylstyryl)benzoic acid] | –
17 | – | 0.16 nM | O=C(O)c1cc(/C=C/c2ccccc2)ccc1O [VN-359, (E)-2-hydroxy-5-styrylbenzoic acid] | –
18 | – | 3.9 nM | O=C(O)c1cccc(/C=C\c2ccc(Cl)cc2)c1 [VN-379, (Z)-3-(4-chlorostyryl)benzoic acid] | –
19 | – | 53 nM | O=C(O)c1cccc(/C=C/c2ccccc2)c1 [VN-330, (E)-3-styrylbenzoic acid] | –
20 | 672 nM | – | O=C(O)c1cccc(/C=C/c2cccnc2)c1 [VN-354, (E)-3-(2-(pyridin-3-yl)vinyl)benzoic acid] | –
21 | 0.73 nM | – | O=C(O)c1cccc(/C=C\c2cccnc2)c1 [VN-381, (Z)-3-(2-(pyridin-3-yl)vinyl)benzoic acid] | –
22 | – | 10.4 nM | O=C(O)c1cccc(/C=C\c2ccc(F)cc2)c1 [VN-372, (Z)-3-(4-fluorostyryl)benzoic acid] | –
23 | 87 nM | – | O=C(O)c1cccc(/C=C/c2cocn2)c1 [VN-351, (E)-3-(2-(oxazol-4-yl)vinyl)benzoic acid] | –
24 | 1370 nM | – | O=C(O)c1cccc(/C=C/c2cscn2)c1 [VN-366, (E)-3-(2-(thiazol-4-yl)vinyl)benzoic acid] | –
25 | 58 nM | – | O=C(O)c1cccc(/C=C/c2cccnc2)c1 [VN-353, (E)-3-(2-(pyridin-3-yl)vinyl)benzoic acid] | –
26 | – | 81.5 nM | COc1ccc(/C=C\c2cccc(C(=O)O)c2)c(C)c1 [VN-342, (Z)-3-(4-methoxy-2-methylstyryl)benzoic acid] | –
27 | – | 1.3 nM | O=C(O)c1cccc(/C=C/c2cccc(OCCN3CCOCC3)c2)c1 [VN-362, (E)-3-(3-(2-morpholinoethoxy)styryl)benzoic acid] | –
28 | 1.7 nM | – | O=C(O)c1cccc(/C=C\c2ccncc2)c1 [VN-387, (Z)-3-(2-(pyridin-4-yl)vinyl)benzoic acid] | –
29 | 1.23 nM | – | O=C(O)c1cccc(/C=C/c2ccsc2)c1 [VN-369, (E)-3-(2-(thiophen-3-yl)vinyl)benzoic acid] | –
30 | – | – | O=C(O)c1cccc([C@@H]2C[C@@H]2c2ccccc2)c1 [VN-376, 3-((1R,2S)-2-phenylcyclopropyl)benzoic acid] | EC50 [1, 8]: 527 nM

Row | Structure (SMILES) | EC50 [1, 6] | EC50 [1, 7] | also measured
31 | Cc1cc(O)ccc1/C=C/c1cccc(C(=O)O)c1 [VN-317, (E)-3-(4-hydroxy-2-methylstyryl)benzoic acid] | – | 7 nM | DDAH-1 protein expression (western blot) [2]: enhancing; also recorded: enhanced; DDAH-1 protein expression (western blot) [3]: reducing; also recorded: reduced; collagen production (western blot) [4]: reduced; inflammation in the lung (CD68 immuno-staining) ([5]; after 6 weeks): dramatic reduction; also recorded: reduced; pulmonary artery medial thickening (histology) ([5]; after 6 weeks): open artery; also recorded: reduced; pulmonary artery pressure (PAP) ([5]; after 6 weeks): significantly reduced; vascular disease in the lung ([5]; after 6 weeks): reduced; pulmonary artery blood acceleration time (PAAT) [5, 9]: increased; right ventricle cavity thickness [5, 9]: reduced; body weight loss ([5]; over 6 weeks): prevented; mortality ([5]; until week 6, N=6): none and reduced
